Patent US5677281A, “Use of peptide derivatives for the preparation of medicaments inhibiting endopeptidases 24.15 and 24.16” (Commissariat a l'Energie Atomique, priority 1992, dated 1997)
pIC50, pKi: −log10 of the molar value. “Also recorded” adds a separate entry of the source. Like-named read-outs stand apart in the source and are kept apart here. Residues, ends and D or L forms follow the SMILES beside them.

Legend:
endopeptidase 24.15 [1] = target: T1, endopeptidase 24.15 (Rattus norvegicus, UniProt P24155); experiment: Inhibition of endopeptidase 24.15, neurotensin as substrate, HPLC (Example 11); type: biochemical; conditions: 37° C.
Method: This example uses the same operating procedure as in example 10, but using neurotensin as the endopeptidase 24.15 substrate.
(§1) After incubating for 42 min, acidification and analysis takes place of the liquid phase by HPLC in reverse phase using linear gradients of the trifluoroacetic acid, triethyl amine and acetonitrile system, as in example 3.

endopeptidase 24.16 [2] = target: T2, endopeptidase 24.16 (Rattus norvegicus, UniProt P42676); experiment: Inhibition of endopeptidase 24.16, fluorimetry with substrate Mcc-Pro-Leu-Gly-Pro-DLys-Dnp (Example 8); type: biochemical; conditions: 1 h, 37° C., pH 7.5, read-out: inhibition constant Ki
Method: After incubating for 1 h, the solutions are analyzed by fluorimetry, as described by Dauch et al, Biochem. J., 280, pp.421-426, 1991a.

endopeptidase 24.16 [3] = target: T2, endopeptidase 24.16; experiment: Inhibition of endopeptidase 24.16, neurotensin, Tris-HCl 25 mM pH 7, 25° C. (Example 16); type: biochemical; conditions: read-out: Endopeptidases 24.16 Ki
Method: (§2) After incubation, it is interrupted by acidification and the solution analyzed by high performance liquid chromatography (HPLC) using an elution system constituted by a linear gradient of 42 min of 0.1% trifluoroacetic acid and 0.05% triethyl amine in acetonitrile, ranging between 9/1 and 3/1, as described by Checler et al, Biochimie 70, pp.75-82, 1988.
As in example 9, this example studies the inhibiting effect of the compounds of examples 1 to 7 on endopeptidase 24.16 using neurotensin as the substrate and operating in the same way, except that use is made of a Tris-HCl, 25 mM, pH 7 buffer and a temperature of 25° C.

endopeptidase 24.15 [4] = target: T1, endopeptidase 24.15; experiment: Inhibition of endopeptidase 24.15, substrate Bz-Gly-Ala-Ala-Phe-pAB, HPLC (Example 10); type: biochemical; conditions: 37° C.
Method: Following incubation, acidification and HPLC analysis on an inverse phase take place using a linear gradient elution system of 63 min of 0.1% trifluoroacetic acid and 0.05% triethyl amine in acetonitrile between 9/1 (v/v) and 5.5/4.5 (v/v), as described by Checler et al in Biochimie 70, pp.75-82, 1988.

leucine aminopeptidase = experiment: Effect on leucine aminopeptidase, substrate Leu-7AMC, HPLC (Example 13); type: biochemical; conditions: 1 μmole/l of inhibitor, 15 min, 37° C.
Method: After incubating for 15 min, the reaction medium is analyzed by HPLC.

endopeptidase 24.16 [5] = target: T2, endopeptidase 24.16; experiment: Inhibition of endopeptidase 24.16, neurotensin as substrate, HPLC (Example 9); type: biochemical
Method: as §2
The results obtained are given in FIGS. 2 to 7, which show chromatograms obtained by measuring the optical density at 230 nm as a function of time (min).

carboxypeptidase A = target: T3, carboxypeptidase A (Bos taurus, UniProt P00730); experiment: Effect on carboxypeptidase A, substrate Hippuryl-Phe, HPLC (Example 12); type: biochemical; conditions: 1 μmole/l of inhibitor, 15 min, 37° C.
T3 sequence (P00730 111-419): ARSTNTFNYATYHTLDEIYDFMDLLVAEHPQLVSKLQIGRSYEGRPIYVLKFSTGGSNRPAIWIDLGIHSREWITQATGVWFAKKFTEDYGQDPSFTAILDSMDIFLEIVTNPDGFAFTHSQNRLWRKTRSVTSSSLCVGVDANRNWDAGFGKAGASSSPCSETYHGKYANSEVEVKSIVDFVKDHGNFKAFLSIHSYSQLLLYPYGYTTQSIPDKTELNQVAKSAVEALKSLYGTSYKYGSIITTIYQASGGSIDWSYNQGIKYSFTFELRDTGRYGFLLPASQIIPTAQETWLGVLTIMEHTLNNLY
Method: After 15 min incubation, the solution is analyzed by HPLC.

endopeptidase 24.11 = experiment: Effect on endopeptidase 24.11, hydrolysis of neurotensin (Example 15); type: biochemical
Method: The hydrolysis of 2 nM of neurotensin is followed by 9 μg of endopeptidase 24.11 under the conditions described in example 3.

endopeptidase 24.15 [6] = target: T1, endopeptidase 24.15; experiment: Inhibition of endopeptidase 24.15, neurotensin, Tris-HCl 25 mM pH 7, 25° C. (Example 17); type: biochemical; conditions: read-out: Endopeptidases 24.15 Ki
Method: as §1
As in example 11, this example studies the inhibiting effect of the compounds of examples 1 to 7 on endopeptidase 24.15 using neurotensin as the substrate and working under the same conditions, except that use is made of a Tris-HCl 25 mM, pH 7 buffer and a temperature of 25° C.

[7] = target: angiotensin conversion enzyme (Homo sapiens, UniProt P12821); experiment: Effect on angiotensin conversion enzyme, substrate Hippuryl-His-Leu, HPLC (Example 14); type: biochemical; conditions: 1 μmole/l of inhibitor, 15 min, 37° C.
endopeptidase 24.15 [8] = target: endopeptidase 24.15 (Homo sapiens, UniProt P52888); conditions: cited from earlier work
endopeptidase 24.16 [9] = target: endopeptidase 24.16 (Homo sapiens, UniProt Q9BYT8); conditions: Dauch et al, cited from earlier work
Chain of endopeptidase 24.16 (Homo sapiens, UniProt Q9BYT8) (Q9BYT8 38-704): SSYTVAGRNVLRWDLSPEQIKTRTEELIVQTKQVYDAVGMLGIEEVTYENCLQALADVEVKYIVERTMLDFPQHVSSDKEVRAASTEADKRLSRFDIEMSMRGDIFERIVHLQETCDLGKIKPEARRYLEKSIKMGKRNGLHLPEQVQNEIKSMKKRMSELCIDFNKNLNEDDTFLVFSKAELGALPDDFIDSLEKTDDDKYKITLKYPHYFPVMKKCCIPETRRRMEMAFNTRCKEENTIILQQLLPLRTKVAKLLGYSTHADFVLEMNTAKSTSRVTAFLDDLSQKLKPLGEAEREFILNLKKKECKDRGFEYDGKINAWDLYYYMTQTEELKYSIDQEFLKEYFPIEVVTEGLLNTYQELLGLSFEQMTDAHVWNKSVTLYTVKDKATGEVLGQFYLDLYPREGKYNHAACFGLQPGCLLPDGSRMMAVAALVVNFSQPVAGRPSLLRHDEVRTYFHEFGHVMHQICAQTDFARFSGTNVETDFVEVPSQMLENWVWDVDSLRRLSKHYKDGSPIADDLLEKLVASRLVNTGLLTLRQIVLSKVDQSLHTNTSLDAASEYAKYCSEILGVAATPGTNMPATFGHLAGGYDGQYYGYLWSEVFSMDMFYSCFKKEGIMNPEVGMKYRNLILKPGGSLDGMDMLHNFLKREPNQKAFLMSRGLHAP

T1 sequence (P24155 whole entry): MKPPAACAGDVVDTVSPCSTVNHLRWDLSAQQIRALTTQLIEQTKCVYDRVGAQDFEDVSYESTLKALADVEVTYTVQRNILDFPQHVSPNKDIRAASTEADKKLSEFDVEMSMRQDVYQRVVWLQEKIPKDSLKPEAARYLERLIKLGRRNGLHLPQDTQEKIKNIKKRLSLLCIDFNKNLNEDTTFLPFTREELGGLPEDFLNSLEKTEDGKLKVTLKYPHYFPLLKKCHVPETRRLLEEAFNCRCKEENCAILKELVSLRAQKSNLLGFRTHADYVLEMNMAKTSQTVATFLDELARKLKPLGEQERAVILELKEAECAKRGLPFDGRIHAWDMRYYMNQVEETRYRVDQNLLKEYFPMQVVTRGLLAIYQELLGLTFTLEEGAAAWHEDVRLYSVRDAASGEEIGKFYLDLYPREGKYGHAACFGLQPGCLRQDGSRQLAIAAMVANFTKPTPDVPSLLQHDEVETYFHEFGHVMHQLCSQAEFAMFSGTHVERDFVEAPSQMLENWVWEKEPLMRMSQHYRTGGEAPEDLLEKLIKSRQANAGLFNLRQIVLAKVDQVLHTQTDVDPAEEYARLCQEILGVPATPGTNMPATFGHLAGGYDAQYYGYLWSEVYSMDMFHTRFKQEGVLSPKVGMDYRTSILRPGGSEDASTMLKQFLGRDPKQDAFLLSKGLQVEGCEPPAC
T2 sequence (P42676 38-704): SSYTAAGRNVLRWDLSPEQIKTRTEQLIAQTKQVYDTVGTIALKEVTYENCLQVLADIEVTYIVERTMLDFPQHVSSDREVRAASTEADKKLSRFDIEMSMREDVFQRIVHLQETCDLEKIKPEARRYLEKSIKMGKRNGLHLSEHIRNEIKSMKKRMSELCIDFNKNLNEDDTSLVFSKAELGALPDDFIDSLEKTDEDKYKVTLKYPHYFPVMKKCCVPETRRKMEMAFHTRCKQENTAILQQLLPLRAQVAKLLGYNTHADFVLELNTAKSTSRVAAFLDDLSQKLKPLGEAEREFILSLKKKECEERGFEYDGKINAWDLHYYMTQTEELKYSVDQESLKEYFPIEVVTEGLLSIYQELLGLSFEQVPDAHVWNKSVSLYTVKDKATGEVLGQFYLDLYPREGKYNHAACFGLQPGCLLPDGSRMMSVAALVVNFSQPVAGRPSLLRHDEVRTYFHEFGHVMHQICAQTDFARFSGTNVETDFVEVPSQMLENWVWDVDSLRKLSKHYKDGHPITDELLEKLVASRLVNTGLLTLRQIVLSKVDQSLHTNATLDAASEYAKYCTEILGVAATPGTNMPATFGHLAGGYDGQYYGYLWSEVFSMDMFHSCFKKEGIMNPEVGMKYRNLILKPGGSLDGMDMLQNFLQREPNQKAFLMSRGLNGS
Chain of angiotensin conversion enzyme (P12821 30-1306): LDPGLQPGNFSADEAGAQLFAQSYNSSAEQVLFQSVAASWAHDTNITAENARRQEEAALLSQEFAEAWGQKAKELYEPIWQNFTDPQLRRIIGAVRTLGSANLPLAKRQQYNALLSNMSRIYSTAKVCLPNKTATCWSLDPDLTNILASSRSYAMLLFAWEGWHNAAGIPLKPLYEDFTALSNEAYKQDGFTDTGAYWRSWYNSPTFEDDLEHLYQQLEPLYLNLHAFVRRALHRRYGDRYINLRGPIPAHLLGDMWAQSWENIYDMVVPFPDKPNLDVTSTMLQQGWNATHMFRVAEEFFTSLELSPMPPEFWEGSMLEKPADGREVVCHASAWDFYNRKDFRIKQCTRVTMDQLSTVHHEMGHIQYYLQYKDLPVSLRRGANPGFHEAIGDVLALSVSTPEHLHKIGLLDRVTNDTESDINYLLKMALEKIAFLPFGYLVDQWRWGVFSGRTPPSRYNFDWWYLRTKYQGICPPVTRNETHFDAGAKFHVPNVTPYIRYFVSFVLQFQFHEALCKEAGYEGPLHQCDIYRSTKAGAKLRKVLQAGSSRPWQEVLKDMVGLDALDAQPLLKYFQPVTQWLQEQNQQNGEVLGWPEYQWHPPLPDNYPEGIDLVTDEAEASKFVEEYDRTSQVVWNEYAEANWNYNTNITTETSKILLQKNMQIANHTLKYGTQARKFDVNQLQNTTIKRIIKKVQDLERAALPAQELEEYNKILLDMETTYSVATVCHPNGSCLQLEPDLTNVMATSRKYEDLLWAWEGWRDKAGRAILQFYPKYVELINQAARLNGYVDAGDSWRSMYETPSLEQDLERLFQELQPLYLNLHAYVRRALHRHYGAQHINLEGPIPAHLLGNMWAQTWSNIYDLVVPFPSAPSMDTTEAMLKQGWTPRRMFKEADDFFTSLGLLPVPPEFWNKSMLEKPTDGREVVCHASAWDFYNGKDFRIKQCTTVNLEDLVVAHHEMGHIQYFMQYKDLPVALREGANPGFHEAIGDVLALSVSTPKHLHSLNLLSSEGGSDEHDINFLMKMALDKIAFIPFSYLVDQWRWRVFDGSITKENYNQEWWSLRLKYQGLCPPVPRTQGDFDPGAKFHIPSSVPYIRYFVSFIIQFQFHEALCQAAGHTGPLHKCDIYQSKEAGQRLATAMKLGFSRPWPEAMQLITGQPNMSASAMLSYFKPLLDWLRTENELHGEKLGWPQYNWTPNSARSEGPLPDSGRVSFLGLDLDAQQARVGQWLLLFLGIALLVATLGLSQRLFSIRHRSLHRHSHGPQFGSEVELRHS
Chain of endopeptidase 24.15 (Homo sapiens, UniProt P52888) (P52888 whole entry, species assumed): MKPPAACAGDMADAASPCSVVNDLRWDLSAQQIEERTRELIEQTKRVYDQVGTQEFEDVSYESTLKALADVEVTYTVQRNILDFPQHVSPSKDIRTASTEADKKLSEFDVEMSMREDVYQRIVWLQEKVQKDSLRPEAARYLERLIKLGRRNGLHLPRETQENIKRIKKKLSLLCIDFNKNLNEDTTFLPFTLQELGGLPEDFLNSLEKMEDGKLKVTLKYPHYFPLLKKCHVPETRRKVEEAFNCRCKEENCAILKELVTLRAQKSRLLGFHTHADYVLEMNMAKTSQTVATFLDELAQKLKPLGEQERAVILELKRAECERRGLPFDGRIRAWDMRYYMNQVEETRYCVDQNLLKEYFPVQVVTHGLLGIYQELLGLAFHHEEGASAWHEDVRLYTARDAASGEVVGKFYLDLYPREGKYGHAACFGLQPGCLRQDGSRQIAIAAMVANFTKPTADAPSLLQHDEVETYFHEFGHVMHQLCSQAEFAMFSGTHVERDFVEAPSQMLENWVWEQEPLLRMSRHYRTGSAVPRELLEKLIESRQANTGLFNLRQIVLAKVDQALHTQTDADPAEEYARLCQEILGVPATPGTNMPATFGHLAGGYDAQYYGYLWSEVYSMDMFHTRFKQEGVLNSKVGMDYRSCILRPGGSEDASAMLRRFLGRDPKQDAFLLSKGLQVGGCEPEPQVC

phosphodiepryl O3
pIC50 (endopeptidase 24.15 [1]): 7.00 | pKi (endopeptidase 24.15 [1]; read-out: inhibition constant Ki): 8.12 | pKi (endopeptidase 24.16 [2]): 9.52 | pKi (endopeptidase 24.16 [3]): 9.36 | pIC50 (endopeptidase 24.15 [4]): 8.30 | pKi (endopeptidase 24.15 [4]): 8.30 | leucine aminopeptidase inhibition (leucine aminopeptidase): no inhibition; also recorded: no effect | effectiveness compared with the Ki of the known inhibitor Pro-Ile (endopeptidase 24.16 [5]; Ki 0.9 nM versus Pro-Ile 90 μM): 100,000 times | pKi (endopeptidase 24.16 [5]; substrate neurotensin, 37° C., pH 7.5): 9.05 | carboxypeptidase A inhibition (carboxypeptidase A): no carboxypeptidase A inhibition; also recorded: no effect | inhibition of endopeptidase 24.11 (endopeptidase 24.11): no inhibition; also recorded: no effect | pKi (endopeptidase 24.15 [6]): 8.80 | inhibition of the angiotensin conversion enzyme [7]: no inhibition; also recorded: no effect

CC[C@H](C)[C@H](NC(=O)[C@@H]1CCCN1)C(=O)O [Pro-Ile] (H-Pro-Ile-OH)
inhibiting action on endopeptidase 24.15 (endopeptidase 24.15 [8]; at a concentration as high as 5 mN): no inhibiting action | pKi (endopeptidase 24.16 [9]; Eur. J. Biochem. 202, 1991b, read-out: Ki inhibition of endopeptidase 24.16): 4.05

C[C@H](NC(=O)[C@H](C)NC(CCc1ccccc1)C(=O)O)C(=O)N[C@@H](Cc1ccc(O)cc1)C(=O)Nc1ccc(C(=O)O)cc1 (stereo partly drawn) [CPP-Ala-Ala-Tyr-pAB]
pKi (endopeptidase 24.15 [8]; Orlowski et al, Biochemistry 27, 1988, read-out: inhibition constant, endopeptidase 24.15): 7.80 | pKi (endopeptidase 24.16 [9]; Biochem. J. 280, 1991, read-out: inhibition constant, endopeptidase 24.16): 6.00
